Data as given in US20260069588A1, “VEPDEGESTRANT FOR USE IN TREATING CANCER” (Arvinas Operation, Inc., priority 2022, published 2026).

Experiment: FIH Study Part A dose escalation: adverse events
Text: TEAEs and TRAEs from the clinical study database were coded to system organ class and preferred term using MedDRA version 22.0 and SAEs from the centralized safety database were coded using MedDRA version 25.0. The severity of adverse events was graded according to the NCI CTCAE version 5.0.

O=C1CC[C@H](N2Cc3cc(N4CCN(CC5CCN(c6ccc([C@@H]7c8ccc(O)cc8CC[C@@H]7c7ccccc7)cc6)CC5)CC4)ccc3C2=O)C(=O)N1 [Compound A, (S)-3-(5-(4-((1-(4-((1R,2S)-6-hydroxy-2-phenyl-1,2,3,4-tetrahydronaphthalen-1-yl)phenyl)piperidin-4-yl)methyl)piperazin-1-yl)-1-oxoisoindolin-2-yl)piperidine-2,6-dione]
TEAE Alanine aminotransferase increased (30 mg (N=3)): 0 n | TEAE Arthralgia (30 mg (N=3)): 0 n | TEAE Aspartate aminotransferase increased (30 mg (N=3)): 0 n | TEAE Back pain (30 mg (N=3)): 0 n | TEAE Constipation (30 mg (N=3)): 0 n | TEAE Decreased appetite (30 mg (N=3)): 0 n | TEAE Diarrhea (30 mg (N=3)): 0 n | TEAE Dizziness (30 mg (N=3)): 0 n | TEAE Fatigue (30 mg (N=3)): 0 n | TEAE Headache (30 mg (N=3)): 0 n | TEAE Hot flush (30 mg (N=3)): 1 n | TEAE Hyperglycemia (30 mg (N=3)): 0 n | TEAE Insomnia (30 mg (N=3)): 1 n | TEAE Nausea (30 mg (N=3)): 0 n | TEAE Pain in extremity (30 mg (N=3)): 0 n | TEAE Vomiting (30 mg (N=3)): 0 n | TRAE Arthralgia (30 mg (N=3)): 0 n | TRAE Constipation (30 mg (N=3)): 0 n | TRAE Decreased appetite (30 mg (N=3)): 0 n | TRAE Fatigue (30 mg (N=3)): 0 n | TRAE Hot flush (30 mg (N=3)): 0 n | TRAE Nausea (30 mg (N=3)): 0 n | TRAE Vomiting (30 mg (N=3)): 0 n | TEAE Alanine aminotransferase increased (60 mg (N=3)): 0 n | TEAE Arthralgia (60 mg (N=3)): 1 n | TEAE Aspartate aminotransferase increased (60 mg (N=3)): 0 n | TEAE Back pain (60 mg (N=3)): 0 n | TEAE Constipation (60 mg (N=3)): 1 n | TEAE Decreased appetite (60 mg (N=3)): 0 n | TEAE Diarrhea (60 mg (N=3)): 0 n | TEAE Dizziness (60 mg (N=3)): 1 n | TEAE Fatigue (60 mg (N=3)): 1 n | TEAE Headache (60 mg (N=3)): 1 n | TEAE Hot flush (60 mg (N=3)): 0 n | TEAE Hyperglycemia (60 mg (N=3)): 0 n | TEAE Insomnia (60 mg (N=3)): 0 n | TEAE Nausea (60 mg (N=3)): 2 n | TEAE Pain in extremity (60 mg (N=3)): 1 n | TEAE Vomiting (60 mg (N=3)): 0 n | TRAE Arthralgia (60 mg (N=3)): 1 n | TRAE Constipation (60 mg (N=3)): 0 n | TRAE Decreased appetite (60 mg (N=3)): 0 n | TRAE Fatigue (60 mg (N=3)): 1 n | TRAE Hot flush (60 mg (N=3)): 0 n | TRAE Nausea (60 mg (N=3)): 2 n | TRAE Vomiting (60 mg (N=3)): 0 n | TEAE Alanine aminotransferase increased (100 mg (N=9)): 0 n | TEAE Arthralgia (100 mg (N=9)): 2 n | TEAE Aspartate aminotransferase increased (100 mg (N=9)): 0 n | TEAE Back pain (100 mg (N=9)): 1 n | TEAE Constipation (100 mg (N=9)): 2 n | TEAE Decreased appetite (100 mg (N=9)): 2 n | TEAE Diarrhea (100 mg (N=9)): 4 n | TEAE Dizziness (100 mg (N=9)): 0 n | TEAE Fatigue (100 mg (N=9)): 2 n | TEAE Headache (100 mg (N=9)): 1 n | TEAE Hot flush (100 mg (N=9)): 1 n | TEAE Hyperglycemia (100 mg (N=9)): 0 n | TEAE Insomnia (100 mg (N=9)): 0 n | TEAE Nausea (100 mg (N=9)): 2 n | TEAE Pain in extremity (100 mg (N=9)): 0 n | TEAE Vomiting (100 mg (N=9)): 1 n | TRAE Arthralgia (100 mg (N=9)): 1 n | TRAE Constipation (100 mg (N=9)): 1 n | TRAE Decreased appetite (100 mg (N=9)): 2 n | TRAE Fatigue (100 mg (N=9)): 1 n | TRAE Hot flush (100 mg (N=9)): 1 n | TRAE Nausea (100 mg (N=9)): 1 n | TRAE Vomiting (100 mg (N=9)): 0 n | TEAE Alanine aminotransferase increased (120 mg (N=7)): 1 n | TEAE Arthralgia (120 mg (N=7)): 2 n | TEAE Aspartate aminotransferase increased (120 mg (N=7)): 3 n | TEAE Back pain (120 mg (N=7)): 1 n | TEAE Constipation (120 mg (N=7)): 2 n | TEAE Decreased appetite (120 mg (N=7)): 3 n | TEAE Diarrhea (120 mg (N=7)): 0 n | TEAE Dizziness (120 mg (N=7)): 1 n | TEAE Fatigue (120 mg (N=7)): 0 n | TEAE Headache (120 mg (N=7)): 2 n | TEAE Hot flush (120 mg (N=7)): 1 n | TEAE Hyperglycemia (120 mg (N=7)): 1 n | TEAE Insomnia (120 mg (N=7)): 1 n | TEAE Nausea (120 mg (N=7)): 2 n | TEAE Pain in extremity (120 mg (N=7)): 2 n | TEAE Vomiting (120 mg (N=7)): 2 n | TRAE Arthralgia (120 mg (N=7)): 2 n | TRAE Constipation (120 mg (N=7)): 1 n | TRAE Decreased appetite (120 mg (N=7)): 3 n | TRAE Fatigue (120 mg (N=7)): 0 n | TRAE Hot flush (120 mg (N=7)): 0 n | TRAE Nausea (120 mg (N=7)): 2 n | TRAE Vomiting (120 mg (N=7)): 2 n | TEAE Alanine aminotransferase increased (180 mg (N=7)): 2 n | TEAE Arthralgia (180 mg (N=7)): 2 n | TEAE Aspartate aminotransferase increased (180 mg (N=7)): 2 n | TEAE Back pain (180 mg (N=7)): 0 n | TEAE Constipation (180 mg (N=7)): 1 n | TEAE Decreased appetite (180 mg (N=7)): 0 n | TEAE Diarrhea (180 mg (N=7)): 0 n | TEAE Dizziness (180 mg (N=7)): 0 n | TEAE Fatigue (180 mg (N=7)): 2 n | TEAE Headache (180 mg (N=7)): 0 n | TEAE Hot flush (180 mg (N=7)): 0 n | TEAE Hyperglycemia (180 mg (N=7)): 0 n | TEAE Insomnia (180 mg (N=7)): 0 n | TEAE Nausea (180 mg (N=7)): 2 n | TEAE Pain in extremity (180 mg (N=7)): 1 n | TEAE Vomiting (180 mg (N=7)): 0 n | TRAE Arthralgia (180 mg (N=7)): 1 n | TRAE Constipation (180 mg (N=7)): 0 n | TRAE Decreased appetite (180 mg (N=7)): 0 n | TRAE Fatigue (180 mg (N=7)): 1 n | TRAE Hot flush (180 mg (N=7)): 0 n | TRAE Nausea (180 mg (N=7)): 2 n | TRAE Vomiting (180 mg (N=7)): 0 n | TEAE Alanine aminotransferase increased (200 mg (N=8)): 2 n | TEAE Arthralgia (200 mg (N=8)): 1 n | TEAE Aspartate aminotransferase increased (200 mg (N=8)): 3 n | TEAE Back pain (200 mg (N=8)): 1 n | TEAE Constipation (200 mg (N=8)): 2 n | TEAE Decreased appetite (200 mg (N=8)): 0 n | TEAE Diarrhea (200 mg (N=8)): 1 n | TEAE Dizziness (200 mg (N=8)): 0 n | TEAE Fatigue (200 mg (N=8)): 1 n | TEAE Headache (200 mg (N=8)): 1 n | TEAE Hot flush (200 mg (N=8)): 1 n | TEAE Hyperglycemia (200 mg (N=8)): 1 n | TEAE Insomnia (200 mg (N=8)): 1 n | TEAE Nausea (200 mg (N=8)): 3 n | TEAE Pain in extremity (200 mg (N=8)): 0 n | TEAE Vomiting (200 mg (N=8)): 1 n | TRAE Arthralgia (200 mg (N=8)): 1 n | TRAE Constipation (200 mg (N=8)): 2 n | TRAE Decreased appetite (200 mg (N=8)): 0 n | TRAE Fatigue (200 mg (N=8)): 0 n | TRAE Hot flush (200 mg (N=8)): 1 n
